The values that follow are results of earlier work, collected in article PMC6499206, “Quantification of Volatile Metabolites Derived From Garlic (Allium sativum) in Human Urine” (Frontiers in Nutrition, 2019).

The test system of this data set is cardiac hypertrophy. Also noted: method as in PMID 28194108. As to conditions: rats; by increasing Na+/K+-ATPase; cited from earlier work.

For `C=CCSC` [AMS, allyl methyl sulfide], the “effect on cardiac hypertrophy” value is listed as “attenuated cardiac hypertrophy”.
With `C=CC[S+](C)[O-]` (centres unmarked) [AMSO, allyl methyl sulfoxide], the “effect on cardiac hypertrophy” value is given as “attenuated cardiac hypertrophy”.
